Data on 8 compounds can be found in patent US20160090383A1, “ANTIBACTERIAL PHTHALIDE DERIVATIVES” (priority 2013, published 2016).

≈ marks a conversion by molar mass, not a printed value. Some results are limits rather than exact numbers.

Common to all, as to assay: Bacterial growth minimal inhibitory concentration (microdilution, CLSI M7-A7)
Assay type in all cases: cell-based

Test [1] concerns Staphylococcus aureus A798. Particulars: multiply-resistant strain (quinolone-resistant and methicillin-resistant), cation-adjusted Mueller-Hinton Broth; for MIC: Staphylococcus aureus, A798, read-out: MIC for S. aureus A798. As for the experimental part: (§1) Minimal Inhibitory Concentrations (MICs; […]) were determined in cation-adjusted Mueller-Hinton Broth by a microdilution method following the description given in “Methods for Dilution Antimicrobial Susceptibility Tests for Bacteria that Grow Aerobically”, Approved standard, 7th ed., Clinical and Laboratory Standards Institute (CLSI) Document M7-A7, Wayne, Pa., USA, 2006.

Test [2] concerns Staphylococcus aureus ATCC29213. Particulars: methicillin-sensitive and quinolone-sensitive strain, cation-adjusted Mueller-Hinton Broth; for MIC: Staphylococcus aureus, ATCC29213, read-out: MIC for S. aureus ATCC29213. As to the method:
as §1

Test [3] concerns Streptococcus pneumonia ATTC49619. Particulars: quinolone-sensitive strain, cation-adjusted Mueller-Hinton Broth; for MIC: Streptococcus pneumoniae, ATTC49619, read-out: MIC for S. pneumonia ATTC49619. As to the method:
as §1

In test [4] the test system is Enterococcus faecium A949. Particulars: multiply-resistant strain (quinolone-resistant and vancomycin-resistant), cation-adjusted Mueller-Hinton Broth; for MIC: Enterococcus faecium, A949, read-out: MIC for E. faecium A949. As for the experimental part:
as §1

Test [5] concerns Moraxella catarrhalis A894. Particulars: quinolone-sensitive strain, cation-adjusted Mueller-Hinton Broth; for MIC: Moraxella catarrhalis, A894. As to the method: as §1

Consider `O=C(CC1OC(=O)c2cc(-c3ccccc3)ccc21)NCCn1c(=O)ccc2ccc(F)cc21` (racemic) [Example 4, rac-N-[2-(7-Fluoro-2-oxo-2H-quinolin-1-yl)-ethyl]-2-(3-oxo-5-phenyl-1,3-dihydro-isobenzofuran-1-yl)-acetamide], for which the MIC was determined as 0.5 µg/mL (≈ 1.1 µM) in test [1]; 0.125 µg/mL (≈ 0.274 µM) in test [2]; 1 µg/mL (≈ 2.19 µM) in test [3]; 0.5 µg/mL (≈ 1.1 µM) in test [4]; 8 µg/mL (≈ 17.5 µM) in test [5].

With `O=C1OC(C(=O)NCCCn2c(=O)ccc3ccc(F)cc32)c2ccc(C3=CCCCC3)cc21` (racemic) [Example 21, rac-5-Cyclohex-1-enyl-3-oxo-1,3-dihydro-isobenzofuran-1-carboxylic acid [3-(7-fluoro-2-oxo-2H-quinolin-1-yl)-propyl]-amide], the minimal inhibitory concentration (MIC) in test [1] amounted to 0.125 µg/mL (≈ 0.271 µM); in test [2], 0.125 µg/mL (≈ 0.271 µM); in test [3], 4 µg/mL (≈ 8.69 µM); in test [4], 4 µg/mL (≈ 8.69 µM); in test [5], 2 µg/mL (≈ 4.34 µM).

“N—((R)-9-Fluoro-4-oxo-1,2-dihydro-4H-pyrrolo[3,2,1-ij]quinolin-1-ylmethyl)-2-((R)-3-oxo-5-phenyl-1,3-dihydro-isobenzofuran-1-yl)-acetamide and N—((R)-9-Fluoro-4-oxo-1,2-dihydro-4H-pyrrolo[3,2,1-ij]quinolin-1-ylmethyl)-2-((S)-3-oxo-5-phenyl-1,3-dihydro-isobenzofuran-1-yl)-acetamide [Example 1]”: the “MIC for S. aureus A798” value in test [1] is “≦0.016 mg/L”. The “MIC for S. aureus ATCC29213” value in test [2] was “≦0.016 mg/L”. Besides, the “MIC for S. pneumonia ATTC49619” value in test [3] stood at 0.125 µg/mL. Moreover, in test [4], the “MIC for E. faecium A949” value is 0.125 µg/mL. Also, the “MIC for M. catarrhalis A894” value in test [5] worked out at 0.25 µg/mL.

With `O=C1OC(CCNCCn2c(=O)ccc3ccc(F)cc32)c2ccc(-c3ccc(F)cc3F)cc21` (racemic) [Example 15, rac-1-(2-{2-[5-(2,4-Difluoro-phenyl)-3-oxo-1,3-dihydro-isobenzofuran-1-yl]-ethylamino}-ethyl)-7-fluoro-1H-quinolin-2-one], the minimum inhibitory concentration (MIC) in test [1] was 1 µg/mL (≈ 2.09 µM); in test [2], 0.25 µg/mL (≈ 0.522 µM); in test [3], 0.5 µg/mL (≈ 1.04 µM); in test [4] it was 0.5 µg/mL (≈ 1.04 µM); in test [5], 4 µg/mL (≈ 8.36 µM).

As to `O=C1OC(C(=O)NCCCn2c(=O)ccc3ccc(F)cc32)c2ccc(-c3ccccc3)cc21` (racemic) [Example 13, rac-3-Oxo-5-phenyl-1,3-dihydro-isobenzofuran-1-carboxylic acid [3-(7-fluoro-2-oxo-2H-quinolin-1-yl)-propyl]-amide], the MIC in test [1] is 0.125 µg/mL (≈ 0.274 µM); in test [2], 0.063 µg/mL (≈ 0.138 µM); in test [3], 1 µg/mL (≈ 2.19 µM); in test [4], 0.5 µg/mL (≈ 1.1 µM); in test [5] it was greater than 8 µg/mL.

Consider `O=C(CC1OC(=O)c2cc(-c3cccc(F)c3F)ccc21)NCCn1c(=O)ccc2ccc(F)cc21` (racemic) [Example 8, rac-2-[5-(2,3-Difluoro-phenyl)-3-oxo-1,3-dihydro-isobenzofuran-1-yl]-N-[2-(7-fluoro-2-oxo-2H-quinolin-1-yl)-ethyl]-acetamide], for which the MIC in test [1] came out at 0.25 µg/mL (≈ 0.508 µM); in test [2], 0.031 µg/mL (≈ 0.063 µM); in test [3], 0.5 µg/mL (≈ 1.02 µM); in test [4], 0.25 µg/mL (≈ 0.508 µM); in test [5] it was 0.5 µg/mL (≈ 1.02 µM).

Regarding `O=C(CC1OC(=O)c2cc(-c3ccccc3F)ccc21)NCCn1c(=O)ccc2ccc(F)cc21` (racemic) [Example 6, rac-N-[2-(7-Fluoro-2-oxo-2H-quinolin-1-yl)-ethyl]-2-[5-(2-fluoro-phenyl)-3-oxo-1,3-dihydro-isobenzofuran-1-yl]acetamide], the MIC in test [1] was 0.25 µg/mL (≈ 0.527 µM); in test [2], 0.063 µg/mL (≈ 0.133 µM); in test [3], 0.5 µg/mL (≈ 1.05 µM); in test [4], 0.25 µg/mL (≈ 0.527 µM); in test [5] it was 2 µg/mL (≈ 4.22 µM).

Take `O=C(CC1OC(=O)c2cc(-c3cccc(F)c3)ccc21)NCCn1c(=O)ccc2ccc(F)cc21` (racemic) [Example 5, rac-N-[2-(7-Fluoro-2-oxo-2H-quinolin-1-yl)-ethyl]-2-[5-(3-fluoro-phenyl)-3-oxo-1,3-dihydro-isobenzofuran-1-yl]-acetamide]: the MIC in test [1] was 0.25 µg/mL (≈ 0.527 µM); in test [2] it was 0.063 µg/mL (≈ 0.133 µM); in test [3], 0.5 µg/mL (≈ 1.05 µM); in test [4] it was 0.25 µg/mL (≈ 0.527 µM); in test [5], 1 µg/mL (≈ 2.11 µM).
